Laboratory results taken from patent publication US20250049930A1, “PROTAC MOLECULES TARGETING FOXP3 AND USES THEREOF” (CEDARS-SINAI MEDICAL CENTER, priority 2022, published 2025).
“Also recorded” adds a separate entry of the source. No end group written: not given here.

System: RENCA tumors
Assay: Subcutaneous RENCA tumor growth in mice
Format: in vivo
Settings: s.c. RENCA in Balb/C mice, i.p. treatment from day 10, vs saline
Method: Mice: Balb/C mice, 5-8 weeks old, were purchased from Jackson laboratory (Ellsworth, Maine) and housed under pathogen free conditions. All experiments involving animals followed federal and state standards, which include the federal Animal Welfare Act and the NIH guide for the care and use of laboratory animals. The RENCA tumors were generated by subcutaneously injecting 2×10^5 tumor cells into the frank. The day tumor cells were injected was considered day 0. PF (0.1 mmol), PC (0.1 mmol) or P60 (100 ug) was administered i.p. twice a week starting on day 10; αPD1 (200 μg) was administered i.p. twice a week starting on day 5; temsirolimus (15 μg) was administered i.p. every other day, starting on day 10. All drugs were administered throughout the experimental course unless indicated. CD8 cells were depleted with a one-time αCD8 (200 μg) i.p. administration on day 2.
In cancer, Tregs can suppress the antitumor immune response, which is primarily mediated by CD8+ lymphocytes. Therefore, PF was administered to mice to enhance antitumor immunity and suppress growth of syngeneic mouse kidney cancer, which is considered an immunoresponsive cancer type. Mice tumors were established by injecting RENCA cells subcutaneously in the flank of Balb/C mice (5-7 mice per group). RENCA cells were injected subcutaneously to establish palpable tumors, and 10 days later mice were treated i.p., twice a week throughout the experiment, with PF, PC, P60 or Saline (FIG. 3D). Pomalidomide conjugated to (PEG)4 (PROTAC-control; PC) and P60 served as controls. […] In summary, PF decreased the immunosuppressive function of Tregs in vitro and decreased tumor growth in mice. […]
All immunotherapies, particularly when multi-drug combinations are involved, may have off-target effects. For example, drugs may have direct effects on the tumor, inhibiting tumor proliferation or inducing tumor apoptosis. Mice tumors were established by injecting RENCA cell subcutaneously in the flank of Balb/C mice (6-8 mice per group). 10 days later, mice were treated with PF twice per week. CD8 lymphocytes were depleted with αCD8 administered i.p. 2 days after injection of tumor cells. Mice in indicated groups received i.p. αPD1, twice a week, starting day 5 (FIG. 5A). Mice in indicated groups received i.p. temsirolimus every other day for 14 days, starting on days 10 (FIG. 5B). Tumor growth was monitored in these groups. […]

Row | Molecule | tumor growth, single agent
1 | CO[C@H]1C[C@@H]2CC[C@@H](C)[C@@](O)(O2)C(=O)C(=O)N2CCCC[C@H]2C(=O)O[C@H]([C@H](C)C[C@@H]2CC[C@@H](OC(=O)C(C)(CO)CO)[C@H](OC)C2)CC(=O)[C@H](C)/C=C(\C)[C@@H](O)[C@@H](OC)C(=O)[C@H](C)C[C@H](C)/C=C/C=C/C=C/1C [temsirolimus] | suppressed tumor growth
2 | RDFQSFRKMWPFFAM (not fully specified (some residues)) [P60] | Only PF produced a decrease in tumor growth; also recorded: no effect on RENCA tumor growth
